Assay results taken from patent US3968231A, “4-Aryl-1,2,3,4-tetrahydropyrrolo(3,4-b)indoles for treating schizophrenic manifestations” (Bayer Aktiengesellschaft, priority 1975, dated 1976).
Where two headings read alike, the source gives them in different places.

Tested on: amphetamine-induced symptoms
Assay: antagonism of amphetamine-induced symptoms in rats (block of d-amphetamine cage movement, rating scale)
Type: in vivo
Details: Rattus norvegicus, ip, i.p. test compound, rated one hour after amphetamine
Description: The tranquilizing agents of the present invention are characterized by relief of such schizophrenic manifestations in humans as hallucinations, hostility, suspiciousness, emotional and social withdrawal, anxiety, agitation and tension. Standard procedures of detecting and comparing tranquilizing activity of compounds in this series and for which there is an excellent correlation with human efficacy is the antagonism of amphetamine-induced symptoms in rats test as taught by A. Weissman, et al., J. Pharmacol. Exp. Ther., 151, 339 (1966) and by Quinton, et al., Nature, 200, 178 (1963).
The effects of the compounds of the present invention on prominent amphetamine-induced symptoms were studied in rats by a rating scale modeled after the one reported by Quinton and Halliwell, and Weissman. Groups of five rats were placed in a covered plastic cage measuring approximately 26 cm. × 42 cm. × 16 cm. After a brief period of acclimation in the cage, the rats in each group were treated intraperitoneally (i.p.) with the test compound. […] On the basis of dose-response data after amphetamine it was possible to determine the effective dose of the compound necessary to antagonize or block the characteristic amphetamine behavior of cage movement for fifty percent of the rats tested (ED50). The time of rating chosen coincides with the peak action of amphetamine which is 60-80 min. after treatment with this agent.
Employing the above-described procedure, the following compounds were tested for their ability to block the behavior effects of amphetamine, the results being reported as the ED50 in mg./kg. at the indicated times: ##SPC25##

[1] = d-amphetamine sulfate 5 mg./kg. i.p. 1 hr. later, read-out: ED50 (dose antagonizing/blocking characteristic amphetamine cage movement in fifty percent of rats), 1 hr.
[2] = d-amphetamine sulfate 5 mg./kg. i.p. 5 hrs. later, read-out: ED50 (dose antagonizing/blocking characteristic amphetamine cage movement in fifty percent of rats), 5 hrs.

| Structure (SMILES) | ED50 [1] [mg/kg] | ED50 [2] [mg/kg] |
| --- | --- | --- |
| Cl.OC(CCCN1Cc2c(n(-c3ccc(F)cc3)c3ccc(F)cc23)C1)c1ccc(F)cc1 (centres unmarked) [F F p-FC6 H4 CH(CH2)3 --, 7-Fluoro-4-(p-fluorophenyl)-2-[4-(p-fluorophenyl)-4-hydroxybutyl]-1,2,3,4-tetrahydropyrrolo[3,4-b]indole hydrochloride] | 1 to 3.2 | 1 to 3.2 |
| CN1Cc2c(n(-c3ccc(F)cc3)c3ccc(F)cc23)C1 [F F CH3, 7-Fluoro-4-(p-fluorophenyl)-2-methyl-1,2,3,4-tetrahydropyrrolo[3,4-b]indole] | 3.2 to 5.6 | > 10 |
| CN(C)CCCN1c2ccccc2Sc2ccc(Cl)cc21 [chlorpromazine, reference compound] | > 10 |  |
